Reference: patent publication US11236072B2, “N-[(pyrimidinylamino)propanyl]-,n-[pyridylamino)propanyl]- and n-[(pyrazinylaminol)propanyl]arylcarboxamides” (Boehringer Ingelheim International GmbH, priority 2017, dated 2022)

test system: human MDR1 P-gp; test: Assay D: efflux in MDCK cells transfected with the human MDR1 gene; type: in vitro ADME, canine; conditions: dog; MDCK-MDR1 monolayers, pH 7.4, 37° C.; read-out: MDCK efflux ratio (BA/AB)
Method: The MDCK assay provides information on the potential of a compound to pass the blood brain barrier. Permeability measurements across polarized, confluent MDCK-MDR1 cell monolayers grown on permeable filter supports are used as an in vitro absorption model: apparent permeability coefficients (PE) of the compounds across the MDCK-MDR1 cell monolayers are measured (pH 7.4, 37° C.) in apical-to-basal (AB) and basal-to-apical (BA) transport direction. […] Identical or similar permeabilities in both transport directions indicate passive permeation, vectorial permeability points to additional active transport mechanisms. Higher PEBA than PEAB (PEBA/PEAB>5) indicates the involvement of active efflux mediated by MDR1 P-gp, which might compromises the goal to achieve sufficient brain exposure. Therefore this assay provides valuable support for selection of compounds applicable for further in vivo testing. High permeability not limited by efflux at the blood brain barrier is a favourable characteristic for compounds that are to be used for drugs acting primarily in the CNS
D. Assessment of Efflux in Madin-Darby Canine Kidney (MDCK) Cells Transfected with the Human MDR1 Gene
Apparent permeability coefficients (PE) of the compounds across the MDCK-MDR1 cell monolayers are measured (pH 7.4, 37° C.) in apical-to-basal (AB) and basal-to-apical (BA) transport direction. […] The compounds are assigned to permeability/absorption classes by comparison of the AB permeabilities with the AB permeabilities of reference compounds with known in vitro permeability and oral absorption in the human. Identical or similar permeabilities in both transport directions indicate passive permeation, vectorial permeability points to additional active transport mechanisms. Higher PEBA than PEAB indicates the involvement of active efflux mediated by MDR1 P-gp. Active transport is concentration-dependently saturable.
MDCK-MDR1 cells (1-2×10e5 cells/1 cm2 area) are seeded on filter inserts (Costar transwell polycarbonate or PET filters, 0.4 μm pore size) and cultured (DMEM) for 7 days. Subsequently, the MDR1 expression is boosted by culturing the cells with 5 mM sodium butyrate in full medium for 2 days. Compounds are dissolved in appropriate solvent (like DMSO, 1-20 mM stock solutions). Stock solutions are diluted with HTP-4 buffer (128.13 mM NaCl, 5.36 mM KCl, 1 mM MgSO4, 1.8 mM CaCl2, 4.17 mM NaHCO3, 1.19 mM Na2HPO4×7H2O, 0.41 mM NaH2PO4×H2O, 15 mM HEPES, 20 mM glucose, 0.25% BSA, pH 7.4) to prepare the transport solutions (0.1-300 μM compound, final DMSO<=0.5%). The transport solution (TL) is applied to the apical or basolateral donor side for measuring A-B or B-A permeability (3 filter replicates), respectively. The receiver side contains the same buffer as the donor side. Samples are collected at the start and end of experiment from the donor and at various time intervals for up to 2 hours also from the receiver side for concentration measurement by HPLC-MS/MS or scintillation counting. Sampled receiver volumes are replaced with fresh receiver solution.

`CCN(C(=O)c1cnc(C)nc1-c1ccccc1)[C@@H](C)CNc1ncc(Br)cn1` [Example 13] and `CCN(C(=O)c1ccc(F)c(F)c1-c1ncccn1)[C@@H](C)CNc1ncc(C(F)(F)F)cn1` [Example 8] cannot be ordered by efflux ratio: less than 3 for the first, less than 3 for the second.

`C[C@@H](CNc1ncc(C(F)(F)F)cn1)N(CC1CC1)C(=O)c1cccc(F)c1-n1nccn1` [Example 1] and `C[C@@H](CNc1ncc(C(F)(F)F)cn1)N(CCF)C(=O)c1cccc(F)c1-n1nccn1` [Example 2] cannot be ordered by efflux ratio: less than 3 for the first, less than 3 for the second.

Compared with `CCN(C(=O)c1cc(F)cnc1-n1nccn1)[C@@H](C)CNc1ccc(C(F)(F)F)cn1` [Example 12], `CCN(C(=O)c1cc(Cl)ccc1-n1nccn1)[C@@H](C)CNc1ncc(C(F)(F)F)cn1` [Example 3] is lower in efflux ratio: 3 to 5.5 for the first, less than 3 for the second.

`CCN(C(=O)c1cccc(F)c1-n1nccn1)[C@@H](C)CNc1ncc(C(F)(F)F)cc1C#N` [Example 7] gave an efflux ratio of less than 3.

molecular target: T1, human Orexin 1 receptor (Homo sapiens, UniProt O43613); test: Assay A: in vitro testing of OX1R potency, OX1R IP1; type: cell-based; conditions: 50 nM Orexin A concentration
T1 sequence (O43613 1-425): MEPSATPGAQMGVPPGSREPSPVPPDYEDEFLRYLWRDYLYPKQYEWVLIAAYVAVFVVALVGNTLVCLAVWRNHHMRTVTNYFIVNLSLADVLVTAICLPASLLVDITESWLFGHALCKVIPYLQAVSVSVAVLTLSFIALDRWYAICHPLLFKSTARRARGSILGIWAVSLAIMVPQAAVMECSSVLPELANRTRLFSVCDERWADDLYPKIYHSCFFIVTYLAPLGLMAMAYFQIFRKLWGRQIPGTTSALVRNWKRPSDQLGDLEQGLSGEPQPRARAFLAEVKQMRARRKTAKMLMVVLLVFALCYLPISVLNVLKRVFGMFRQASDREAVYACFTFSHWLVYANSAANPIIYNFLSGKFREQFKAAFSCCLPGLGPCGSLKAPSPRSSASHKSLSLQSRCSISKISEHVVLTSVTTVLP
Excerpt: Chem. Genomics 2009, 3, 22-32.
A. In Vitro Testing of OX1R Potency: OX1R IP1

Going from `CCN(C(=O)c1cnc(C)nc1-c1ccccc1)[C@@H](C)CNc1ncc(Br)cn1` [Example 13] to `CCN(C(=O)c1ccc(F)c(F)c1-c1ncccn1)[C@@H](C)CNc1ncc(C(F)(F)F)cn1` [Example 8], the Kb falls from 89 pM to 14 pM (6.4-fold).

Going from `C[C@@H](CNc1ncc(C(F)(F)F)cn1)N(CC1CC1)C(=O)c1cccc(F)c1-n1nccn1` [Example 1] to `C[C@@H](CNc1ncc(C(F)(F)F)cn1)N(CCF)C(=O)c1cccc(F)c1-n1nccn1` [Example 2], the Kb rises from 214 pM to 670 pM (3.1-fold).

First: CCN(C(=O)c1cc(F)cnc1-n1nccn1)[C@@H](C)CNc1ccc(C(F)(F)F)cn1 [Example 12]
Second: CCN(C(=O)c1cc(Cl)ccc1-n1nccn1)[C@@H](C)CNc1ncc(C(F)(F)F)cn1 [Example 3]
The Kb of the first is 4.9-fold higher: 156 pM for the first, 32 pM for the second.

With `CCN(C(=O)c1cccc(F)c1-n1nccn1)[C@@H](C)CNc1ncc(C(F)(F)F)cc1C#N` [Example 7] the Kb was 21 pM.

same assay, conditions: compared to Example 73 in WO2016/034882

With `CCN(C(=O)c1cc(F)cnc1-n1nccn1)[C@@H](C)CNc1ccc(C(F)(F)F)cn1` [Example 12] the “higher potency (OX1R)” value was “approximately 2 fold”.

same assay, conditions: compared to Example 84 in WO2016/034882

For `CCN(C(=O)c1ccc(F)c(F)c1-c1ncccn1)[C@@H](C)CNc1ncc(C(F)(F)F)cn1` [Example 8], the “higher potency (OX1R)” value was “over 150 fold”.

test system: not listed separately; test: Assay C: metabolic stability in human liver microsomes (Human MST); type: in vitro ADME; conditions: pH 7.6; pooled human liver microsomes, 1 μM compound, 37° C.; read-out: Human MST t1/2
Excerpt: Stability in human liver microsomes refers to the susceptibility of compounds to biotransformation in the context of selecting and/or designing drugs with favorable pharmacokinetic properties. The primary site of metabolism for many drugs is the liver. Human liver microsomes contain the cytochrome P450s (CYPs), and thus represent a model system for studying drug metabolization in vitro. Enhanced stability in human liver microsomes is associated with several advantages, including increased bioavailability and longer half-life, which can enable lower and less frequent dosing of patients. Thus, enhanced stability in human liver microsomes is a favorable characteristic for compounds that are to be used for drugs.
C. Assessment of Metabolic Stability in Human Liver Microsomes (Human MST)
The metabolic stability of the compounds according to the invention may be investigated as follows:
The metabolic degradation of the test compound is assayed at 37° C. with pooled human liver microsomes. The final incubation volume of 100 μL per time point contains TRIS buffer pH 7.6 at room temperature (0.1 M), MgCl2 (5 mM), microsomal protein (1 mg/mL) and the test compound at a final concentration of 1 μM. Following a short pre-incubation period at 37° C., the reactions are initiated by addition of beta-nicotinamide adenine dinucleotide phosphate, reduced form (NADPH, 1 mM), and terminated by transferring an aliquot into solvent after different time points. After centrifugation (10000 g, 5 min), an aliquot of the supernatant is assayed by LC-MS/MS for the amount of parent compound. The half-life (t1/2) is determined by the slope of the semi-logarithmic plot of the concentration-time profile.

Compared with `CCN(C(=O)c1cnc(C)nc1-c1ccccc1)[C@@H](C)CNc1ncc(Br)cn1` [Example 13], `CCN(C(=O)c1ccc(F)c(F)c1-c1ncccn1)[C@@H](C)CNc1ncc(C(F)(F)F)cn1` [Example 8] is higher in half-life at 1 μM: 1.27 h for the first, greater than 2.17 h for the second.

Compared with `C[C@@H](CNc1ncc(C(F)(F)F)cn1)N(CC1CC1)C(=O)c1cccc(F)c1-n1nccn1` [Example 1], `C[C@@H](CNc1ncc(C(F)(F)F)cn1)N(CCF)C(=O)c1cccc(F)c1-n1nccn1` [Example 2] is higher in half-life at 1 μM: 1.22 h for the first, greater than 2.17 h for the second.

Compared with `CCN(C(=O)c1cc(F)cnc1-n1nccn1)[C@@H](C)CNc1ccc(C(F)(F)F)cn1` [Example 12], `CCN(C(=O)c1cc(Cl)ccc1-n1nccn1)[C@@H](C)CNc1ncc(C(F)(F)F)cn1` [Example 3] is 3-fold higher in half-life at 1 μM: 0.733 h for the first, 2.17 h for the second.

Work on `CCN(C(=O)c1cccc(F)c1-n1nccn1)[C@@H](C)CNc1ncc(C(F)(F)F)cc1C#N` [Example 7] yielded a half-life at 1 μM of 1.48 h.
